Data from US10441562B2, “Aromatic farnesyl compound and application thereof” (INSTITUTE OF MICROBIOLOGY, CHINESE ACADEMY OF SCIENCES, priority 2015, dated 2019).
Read-outs that look alike come from different tables or passages of the source.

Experiments:
Format in all cases: biochemical
α-glucosidase = molecular target: T1, α-glucosidase (Saccharomyces cerevisiae, UniProt P53341); assay: α-glucosidase inhibitory activity test in vitro
T1 construct: purchased Sigma Corporation G5003
Experimental: Add 25 μL α-glucosidase water solution (0.2 U/mL) and 175 μL phosphate buffer (50 mM, pH 7.0) into 25 μL different concentration of the above test solutions. The mixed solution is standed for 10 min at room temperature, and then 25 μL 4-nitrophenyl-α-D-glucopyranoside water solution (2.5 mM) is added into the mixed solution. After the solution is incubated at 37 °C for 30 min and centrifuged at 5000 rpm for 5 minutes, 150 uL supernatant is added into 96-well plates and the absorbance is detected at 405 nm.
Blank group: the test solution is replaced by 25 μL phosphate buffer (50 mM, pH 7.0); blank control group: the test solution is replaced by 25 μL phosphate buffer (50 mM, pH 7.0), meanwhile α-glucosidase water solution is replaced by 25 μL phosphate buffer (50 mM, pH 7.0); sample control group: α-glucosidase water solution is replaced by 25 μL phosphate buffer (50 mM, pH 7.0).
(§1) Repeat each of the above experiment groups for 3 times, and then average the results.
IC50=[CL(IH−50)+CH(50−IL)]/(IH−IL) CL: low concentration value; CH: high concentration value; IH: inhibition rate in high concentration; IL: inhibition rate in low concentration

HMG-CoA reductase = molecular target: T2, HMG-CoA reductase (Homo sapiens, UniProt P04035); assay: HMG-CoA reductase inhibitory activity test in vitro
T2 sequence (P04035 426-888 limits assumed): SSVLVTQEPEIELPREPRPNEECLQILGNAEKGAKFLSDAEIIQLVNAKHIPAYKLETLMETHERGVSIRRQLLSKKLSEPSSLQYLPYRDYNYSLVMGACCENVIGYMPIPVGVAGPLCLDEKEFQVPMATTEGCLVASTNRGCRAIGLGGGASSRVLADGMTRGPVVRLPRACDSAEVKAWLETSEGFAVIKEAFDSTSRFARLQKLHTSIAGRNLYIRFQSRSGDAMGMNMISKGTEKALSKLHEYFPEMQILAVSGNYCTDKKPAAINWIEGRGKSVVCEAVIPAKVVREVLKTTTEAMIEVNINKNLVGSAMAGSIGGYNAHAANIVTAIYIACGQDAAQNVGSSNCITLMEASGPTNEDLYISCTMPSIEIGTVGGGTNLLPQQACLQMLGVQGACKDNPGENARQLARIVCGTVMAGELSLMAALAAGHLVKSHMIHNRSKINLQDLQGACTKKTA
Experimental: Add 25 μL HMG-CoA reductase water solution (0.2 U/mL), 25 μL NADPH water solution (0.2 U/mL) and 24 μL phosphate buffer (50 mM, pH 7.0) into 1 μL different concentration of the above test solution. The mixed solution is standed for 10 min at room temperature, and then 25 μL HMG-CoA is added into the mixed solution. After the solution is incubated at 37∞ for 30 min and centrifuged at 5000 rpm for 5 minutes, 80 uL supernatant is added into 96-well plates and the absorbance is detected at 550 nm.
as §1

[1] = molecular target: T3, protein tyrosine phosphatase 1B (PTP-1B) (Homo sapiens, UniProt P18031); assay: PTP-1B inhibitory activity test in vitro
T3 sequence (P18031 1-435): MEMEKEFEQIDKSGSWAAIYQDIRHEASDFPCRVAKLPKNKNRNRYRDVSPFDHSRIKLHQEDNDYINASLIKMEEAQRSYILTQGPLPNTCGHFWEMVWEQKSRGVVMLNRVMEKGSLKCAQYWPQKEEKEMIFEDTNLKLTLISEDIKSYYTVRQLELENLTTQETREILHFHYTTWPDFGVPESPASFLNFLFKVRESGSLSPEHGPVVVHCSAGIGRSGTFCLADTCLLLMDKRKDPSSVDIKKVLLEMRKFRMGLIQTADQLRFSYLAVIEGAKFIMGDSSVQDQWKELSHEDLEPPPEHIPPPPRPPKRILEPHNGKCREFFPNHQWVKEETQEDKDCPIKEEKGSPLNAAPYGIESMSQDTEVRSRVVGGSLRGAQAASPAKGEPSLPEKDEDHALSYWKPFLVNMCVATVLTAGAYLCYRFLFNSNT
Experimental: Experimental procedure: the following reagents are added into 96-well plates in sequence and the mixture ratios of different groups are as followings: Test group: 50 μL compound solution+50 μL 170 μg/mL PTP-1B solution […] Blank group: 50 μL buffer solution+50 μL 170 μg/mL PTP-1B solution Background group: 50 μL compound solution+50 μL buffer solution After adding the reagents, the 96-well plate is […] for 10 min at room temperature to make the compound and the enzyme react completely. Add 50 μL 1 mM pNPP solution which is used as substrate and incubate the mixed solution at 37 °C for 30 min. Then add 50 μL 3M NaOH into each well of the plate to stop the reaction and the optical density is detected at […].

aldose reductase = aldose reductase (Homo sapiens, UniProt P15121); assay: aldose reductase inhibitory activity test in vitro
Experimental: Experimental procedure: the following reagents are added into 96-well plates in sequence and the mixture ratios of different groups are as followings:
Test group: 10 μL compound solution+25 μL (0.1 mM) NADPH solution+25 μL PBS buffer solution+15 μL aldose reductase diluent
Blank group: 25 μL (0.1 mM) NADPH solution+35 μL PBS buffer solution+15 μL aldose reductase diluent
Background group: 25 μL (0.1 mM) NADPH solution+60 μL PBS buffer solution+15 μL aldose reductase diluent
After adding the reagents, the 96-well plate is standed for 10 min at room temperature to make the compound and the enzyme react completely. Add 25 μL 10 mM D, L glyceraldehyde solution which is used as substrate into the groups except for background group, and incubate the solution at 37 °C for 30 min. Then detect the optical density of each well at 340 nm.

dipeptidyl peptidase-4 = molecular target: T4, dipeptidyl peptidase-4 (Homo sapiens, UniProt P27487); assay: dipeptidyl peptidase-4 inhibitory activity test in vitro (DPP-4 inhibitor screening kit)
T4 construct: purchased
T4 sequence (P27487 whole entry, species assumed): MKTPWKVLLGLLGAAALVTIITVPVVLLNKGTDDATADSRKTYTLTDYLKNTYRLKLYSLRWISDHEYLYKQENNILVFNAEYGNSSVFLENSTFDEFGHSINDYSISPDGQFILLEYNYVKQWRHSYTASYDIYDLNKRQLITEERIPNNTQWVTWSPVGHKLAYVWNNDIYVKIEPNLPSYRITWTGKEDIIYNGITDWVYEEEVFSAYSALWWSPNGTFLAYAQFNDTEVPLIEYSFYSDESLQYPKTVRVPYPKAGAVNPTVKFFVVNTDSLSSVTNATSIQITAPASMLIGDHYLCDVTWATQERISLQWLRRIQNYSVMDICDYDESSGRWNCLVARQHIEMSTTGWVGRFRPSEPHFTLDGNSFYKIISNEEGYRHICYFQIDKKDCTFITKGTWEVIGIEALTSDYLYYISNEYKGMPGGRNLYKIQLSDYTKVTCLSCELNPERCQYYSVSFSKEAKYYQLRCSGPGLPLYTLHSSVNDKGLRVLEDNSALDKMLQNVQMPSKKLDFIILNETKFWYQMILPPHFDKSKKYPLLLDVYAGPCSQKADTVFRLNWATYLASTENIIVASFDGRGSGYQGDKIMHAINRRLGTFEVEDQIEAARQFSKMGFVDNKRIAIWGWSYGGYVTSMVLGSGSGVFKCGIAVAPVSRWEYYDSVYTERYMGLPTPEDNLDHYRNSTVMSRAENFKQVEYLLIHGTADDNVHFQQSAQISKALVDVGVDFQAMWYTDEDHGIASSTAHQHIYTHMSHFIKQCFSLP
Excerpt: The above compounds are detected by DPP-4 inhibitor screening kit.

[2] = read-out: α-glucosidase inhibitory activity (IC50)

T1 sequence (P53341 whole entry): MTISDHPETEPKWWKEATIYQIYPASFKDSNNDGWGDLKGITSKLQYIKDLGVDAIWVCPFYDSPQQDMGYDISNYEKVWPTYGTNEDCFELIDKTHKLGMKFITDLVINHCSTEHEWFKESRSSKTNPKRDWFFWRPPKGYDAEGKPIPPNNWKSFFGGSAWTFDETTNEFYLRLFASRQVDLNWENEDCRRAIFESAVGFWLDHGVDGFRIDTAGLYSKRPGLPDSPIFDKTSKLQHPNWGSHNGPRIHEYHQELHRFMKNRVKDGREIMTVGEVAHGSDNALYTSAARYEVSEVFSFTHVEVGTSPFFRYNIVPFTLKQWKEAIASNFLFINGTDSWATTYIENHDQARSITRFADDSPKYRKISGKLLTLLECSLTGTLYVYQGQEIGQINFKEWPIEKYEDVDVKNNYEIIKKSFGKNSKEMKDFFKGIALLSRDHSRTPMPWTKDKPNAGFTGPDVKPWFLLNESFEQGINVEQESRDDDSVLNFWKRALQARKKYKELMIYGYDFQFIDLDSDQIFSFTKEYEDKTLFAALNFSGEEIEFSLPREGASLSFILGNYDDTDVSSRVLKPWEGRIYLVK

IC50 (α-glucosidase; [2])	IC50 (HMG-CoA reductase)	IC50 [1]	IC50 (aldose reductase)	IC50 (dipeptidyl peptidase-4)	Compound	IC50 (α-glucosidase)
8.65 µM	8.9 µM	7.8 µM	38.3 µM	14.5 µM	COCOc1ccccc1[C@H]1C=C(CC/C=C(\C)CCC=C(C)C)C(=O)O1 [S3]	–
5.43 µM	5.4 µM	7.6 µM	34.9 µM	21.2 µM	CC(C)=CCC/C(C)=C/CC/C(=C/C(=O)c1cc(O)ccc1O)C(=O)O [S32, (2Z,5E)-2-(2-(2,5-dihydroxyphenyl)-2-oxoethylidene)-6,10-dimethylundeca-5,9-dienoic acid]	–
1.23 µM	12.5 µM	9.8 µM	67.5 µM	12.9 µM	CC(C)=CCCC1=C[C@@H](c2cc(O)ccc2O)OC1=O [S38, (S)-5-(2,5-dihydroxyphenyl)-3-(4-methylpent-3-en-1-yl)furan-2(5H)-one]	–
0.21 µM	4.7 µM	11.1 µM	23.5 µM	21.2 µM	CC(C)=CCC/C(C)=C/CCC1=C[C@H](c2ccccc2O)OC1=O [S4, (R,E)-3-(4,8-dimethylnona-3,7-dien-1-yl)-5-(2-hydroxyphenyl)furan-2 (5-H)-one]	–
11.5 µM	4.4 µM	11.8 µM	26.1 µM	8.8 µM	COc1ccc(OC)c([C@H]2C=C(CC/C=C(\C)CCC=C(C)C)C(=O)O2)c1 [S12, (R,E)-5-(2,5-dimethoxyphenyl)-3-(4,8-dimethylnona-3,7-dien-1-yl)furan-2(5H)-one]	–
0.23 µM	15.2 µM	17.6 µM	1.2 µM	15.8 µM	CC(C)=CCC/C(C)=C/CCC1=C[C@@H](c2ccc(C(C)(C)C)cc2)OC1=O [S24, (S,E)-5-(4-(tert-butyl)phenyl)-3-(4,8-dimethylnona-3,7-dien-1-yl)furan-2 (5H)-one]	–
30.3 µM	7.5 µM	9.8 µM	5.3 µM	10.6 µM	CC(C)=CCC/C(C)=C/CCC1=C[C@@H](c2ccc([N+](=O)[O-])cc2)OC1=O [S26, (S,E)-3-(4,8-dimethylnona-3,7-dien-1-yl)-5-(4-nitrophenyl)furan-2(5H)-one]	–
0.09 µM	18.9 µM	5.3 µM	8.5 µM	20.9 µM	CC(C)=CCC/C(C)=C/CCC1=C[C@H](c2ccccc2[N+](=O)[O-])OC1=O [S5, (R,E)-3-(4,8-dimethylnona-3,7-dien-1-yl)-5-(2-nitrophenyl)furan-2(5H)-one]	–
> 50 µM	1.2 µM	10.1 µM	> 100 µM	18.2 µM	COc1ccc([C@H]2C=C(CC/C=C(\C)CCC=C(C)C)C(=O)O2)cc1 [S10, (R,E)-3-(4,8-dimethylnona-3,7-dien-1-yl)-5-(4-methoxyphenyl)furan-2(5H)-one]	–
34.2 µM	7.4 µM	8.1 µM	4.9 µM	10.2 µM	CC(C)=CCC/C(C)=C/CCC1=C[C@H](c2ccc([N+](=O)[O-])cc2)OC1=O [S11, (R,E)-3-(4,8-dimethylnona-3,7-dien-1-yl)-5-(4-nitrophenyl)furan-2(5H)-one]	–
0.58 µM	4.2 µM	15.5 µM	59 µM	9.2 µM	CCc1ccc([C@H]2C=C(CC/C=C(\C)CCC=C(C)C)C(=O)O2)cc1 [S7, (R,E)-3-(4,8-dimethylnona-3,7-dien-1-yl)-5-(4-ethylphenyl)furan-2(5H)-one]	–
0.18 µM	3.8 µM	10.5 µM	56.1 µM	12.2 µM	CC(C)=CCC/C(C)=C/CCC1=C[C@H](c2ccccc2)OC1=O [S1, (R,E)-3-(4,8-dimethylnona-3,7-dien-1-yl)-5-phenylfuran-2 (5H)-one]	–
1.27 µM	38.2 µM	25.4 µM	54.9 µM	12.1 µM	CC(C)=CCC/C(C)=C/CCC1=C[C@H](c2cc(F)c(F)c(F)c2)OC1=O [S15, (R,E)-3-(4,8-dimethylnona-3,7-dien-1-yl)-5-(3,4,5-trifluorophenyl)furan-2(5H)-one]	–
52.1 µM	1.5 µM	16.5 µM	101 µM	18.5 µM	COc1ccc([C@@H]2C=C(CC/C=C(\C)CCC=C(C)C)C(=O)O2)cc1 [S25, (S,E)-3-(4,8-dimethylnona-3,7-dien-1-yl)-5-(4-methoxyphenyl)furan-2(5H)-one]	–
1.03 µM	12.5 µM	5.8 µM	55.1 µM	16.5 µM	CC(C)=CCC/C(C)=C/CCC1=C[C@@H](c2ccc(C)cc2)OC1=O [S21, (S,E)-3-(4,8-dimethylnona-3,7-dien-1-yl)-5-(p-tolyl)furan-2(5H)-one]	–
6.32 µM	42.2 µM	10.1 µM	20.2 µM	13.6 µM	CC(C)=CCC/C(C)=C/CCC1=C[C@@H](c2ccc3ccccc3c2)OC1=O [S17, (S,E)-3-(4,8-dimethylnona-3,7-dien-1-yl)-5-(naphthalen-2-yl)furan-2 (5H)-one]	–
1.06 µM	8.1 µM	5.6 µM	63.2 µM	31.5 µM	CC(C)=CCC/C(C)=C/CCC1=C[C@H](c2ccc(C)cc2)OC1=O [S6, (R,E)-3-(4,8-dimethylnona-3,7-dien-1-yl)-5-(p-tolyl)furan-2(5H)-one]	–
56.2 µM	> 100 µM	12.7 µM	84.4 µM	9.4 µM	CC(C)=CCC/C(C)=C/CCC1=C[C@H](c2ccc(C(C)C)cc2)OC1=O [S8, (R,E)-3-(4,8-dimethylnona-3,7-dien-1-yl)-5-(4-isopropylphenyl)furan-2(5H)-one]	–

Compound	IC50 (α-glucosidase; [2])	IC50 (HMG-CoA reductase)	IC50 [1]	IC50 (aldose reductase)	IC50 (dipeptidyl peptidase-4)	IC50 (α-glucosidase)
C/C(=C\CC/C(C)=C/CC/C(=C/Cc1cc(O)ccc1O)C(=O)O)CO [S33, (2Z,5E,9E)-2-(2-(2,5-dihydroxyphenyl)ethylidene)-11-hydroxy-6,10-dimethylundeca-5,9-dienoic acid]	–	32.9 µM	4.5 µM	23.1 µM	18.7 µM	12.2 µM
